From US11618747B2, “LXR modulators with bicyclic core moiety” (OrsoBio, Inc., priority 2018, dated 2023)

How the values were obtained:
[1] = molecular target: T1, LXRβ ligand-binding domain (Homo sapiens, UniProt P55055, DUP175-175); test: TR-FRETβ activity assay (NCoA3 coactivator peptide recruitment); type: biochemical; conditions: TR-FRET, 1 μM 24(S)-25-epoxycholesterol prestimulation; read-out: FRETβ (EC50 range)
T1 construct: amino acids 156-461; NP009052; made in house; host or cells: E. coli
T1 sequence (P55055 with tags, fused parts or gaps DUP175-175 limits assumed): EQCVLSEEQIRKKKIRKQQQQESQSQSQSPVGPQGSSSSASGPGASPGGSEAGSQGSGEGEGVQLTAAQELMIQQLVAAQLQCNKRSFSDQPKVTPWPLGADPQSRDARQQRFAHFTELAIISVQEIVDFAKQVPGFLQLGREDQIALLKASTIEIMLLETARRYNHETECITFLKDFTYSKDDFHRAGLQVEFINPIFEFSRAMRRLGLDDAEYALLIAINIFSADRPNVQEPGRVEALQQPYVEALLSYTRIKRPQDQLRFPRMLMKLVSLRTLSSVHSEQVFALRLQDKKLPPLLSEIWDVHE
Procedure, shortened: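 Inverse agonism assessed by loss of coactivator recruitment, read as TR-FRET 665/615 nm after 1 h equilibration at 4 °C, in triplicate. Ten-point titration from 50 μM to 0.002 μM against LXRβ LBD (76 nM, GST fusion) prestimulated with 1 μM 24(S)-25-epoxycholesterol, with 400 nM NCoA3 peptide, pH 6.8. Sulfonyl acetic acids kept as 20 mM DMSO stocks with 100 mM TFA.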

[2] = molecular target: T2, ligand-binding domain (LBD) of LXRβ (Homo sapiens, UniProt P55055, DUP175-175); test: LXR Gal4 reporter transient transfection assay (LBD-M2H Gal4β); type: cell-based; conditions: HEK293 cells, LXRβ LBD; read-out: LBD-M2H Gal4β (EC50 range)
T2 construct: LXRβ (amino acids 156-461); expressed in transfected cells; host or cells: HEK293
T2 sequence (P55055 with tags, fused parts or gaps DUP175-175 limits assumed): T1 sequence (P55055 with tags, fused parts or gaps DUP175-175 limits assumed)
Protocol: The tested compounds were usually dissolved, tested and stored as 20 mM stock solutions in DMSO. Since sulfonyl acetic acid derivatives tend to decarboxylate under these conditions, these stock solutions were prepared, tested and stored as 20 mM DMSO stock solutions containing 100 mM trifluoroacetic Acid (5 equivalents). Sulfonyl acetic acid derivatives are shelf stable as solid at rt for long time as reported by Griesbrecht et al. (Synlett 2010:374) or Faucher et al. (J. Med. Chem. 2004; 47:18).
LXR Gal4 Reporter Transient Transfection Assays
LXRα and LXRβ activity status was determined via detection of interaction with coactivator and corepressor proteins in mammalian two-hybrid experiments (M2H). For this, via transient transfection the full length (FL) proteins of LXRα (amino acids 1-447; NP005684; SEQ ID NO:1) or LXRβ-(amino acids 1-461; NP009052; SEQ ID NO:2) or the ligand-binding domains (LBD) of LXRα (amino acids 155-447 SEQ ID NO:3) or LXRβ (amino acids 156-461; SEQ ID NO:4) were expressed from pCMV-AD (Stratagene) as fusions to the transcriptional activation domain of NFkB. As cofactors, domains of either the steroid receptor coactivator 1 (SRC1; amino acids 552-887; SEQ ID NO:5) or of the corepressor NCoR (amino acids 1906-2312; NP006302; SEQ ID NO:6) were expressed as fusions to the DNA binding domain of the yeast transcription factor GAL4 (from pCMV-BD; Stratagene). Interaction was monitored via activation of a coexpressed Firefly Luciferase Reporter gene under control of a promoter containing repetitive GAL4 response elements (vector pFRLuc; Stratagene). Transfection efficiency was controlled via cotransfection of constitutively active pRL-CMV Renila reniformis luciferase reporter (Promega). HEK293 cells were grown in minimum essential medium (MEM) with 2 mM L-glutamine and Earle's balanced salt solution supplemented with 8.3% fetal bovine serum, 0.1 mM non-essential amino acids, 1 mM sodium pyruvate, at 37° C. in 5% CO2. 3.5×10^4 cells/well were plated in 96-well cell culture plates in growth medium supplemented with 8.3% fetal bovine serum for 16-20 h to ˜90% confluency. For transfection, medium was taken off and LXR and cofactor expressing plasmids as well as the reporter plasmids are added in 30 μL OPTIMEM/well including polyethylene-imine (PEI) as vehicle. Typical amounts of plasmids transfected/well: pCMV-AD-LXR (5 ng), pCMV-BD-cofactor (5 ng), pFR-Luc (100 ng), pRL-CMV (0.5 ng). Compound stocks were prepared in DMSO, prediluted in MEM to a total volume of 120 μL, and added 4 h after addition of the transfection mixture (final vehicle concentration not exceeding 0.2%). Cells were incubated for additional 16 h, lysed for 10 min in 1× Passive Lysis Buffer (Promega) and Firefly and Renilla luciferase activities were measured sequentially in the same cell extract using buffers containing D-luciferine and coelenterazine, respectively. Measurements of luminescence were done in a BMG-luminometer.

[3] = molecular target: T3, full length (FL) LXRβ (Homo sapiens, UniProt P55055, DUP175-175); test: LXR Gal4 reporter transient transfection assay (FL-M2H Gal4β); type: cell-based; conditions: HEK293 cells, full length LXRβ; read-out: FL-M2H Gal4β (EC50 range)
T3 construct: the full length (FL) proteins of LXRα (amino acids 1-447); NP005684; NP009052; expressed in transfected cells; host or cells: HEK293
T3 sequence (P55055 with tags, fused parts or gaps DUP175-175): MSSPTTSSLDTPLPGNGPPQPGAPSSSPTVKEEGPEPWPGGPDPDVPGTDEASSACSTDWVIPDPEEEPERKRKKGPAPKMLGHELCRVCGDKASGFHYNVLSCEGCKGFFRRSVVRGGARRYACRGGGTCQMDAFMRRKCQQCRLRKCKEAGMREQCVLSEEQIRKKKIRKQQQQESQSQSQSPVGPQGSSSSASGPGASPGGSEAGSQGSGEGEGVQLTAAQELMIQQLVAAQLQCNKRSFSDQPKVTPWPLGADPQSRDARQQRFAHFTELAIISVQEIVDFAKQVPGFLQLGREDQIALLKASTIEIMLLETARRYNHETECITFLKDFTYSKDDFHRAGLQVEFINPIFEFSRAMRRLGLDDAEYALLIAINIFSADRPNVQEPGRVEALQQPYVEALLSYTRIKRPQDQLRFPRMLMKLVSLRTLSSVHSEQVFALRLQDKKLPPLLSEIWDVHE
Procedure, shortened: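 Cells (HEK293, 3.5×10^4/well) were plated 16-20 h, transfected with LXR, cofactor and reporter plasmids, treated with compound after 4 h, and lysed after a further 16 h. Interaction of LXR constructs with SRC1 or NCoR is detected by GAL4-driven Firefly luciferase.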

[4] = Short term HFD mouse model: plasma and liver exposure; type: in vivo, mice (C57BL/6J); conditions: HFD mice, three oral doses of 10 mg/kg, 4 h after last dose
Protocol: Short Term HFD Mouse Model:
The in vivo transcriptional regulation of several LXR target genes by LXR modulators was assessed in mice.
For this, C57BL/6J were purchased from Elevage Janvier (Rennes, France) at the age of 8 weeks. After an acclimation period of two weeks, animals were preferred on a high fat diet (HFD) (Ssniff Spezialdiäten GmbH, Germany, Surwit EF D12330 mod, Cat. No. E15771-34), with 60 kcal % from fat plus 1% (w/w) extra cholesterol (Sigma-Aldrich, St. Louis, Mo.) for 5 days. Animals were maintained on this diet during treatment with LXR modulators. The test compounds were formulated in 0.5% hydroxypropylmethylcellulose (HPMC) and administered in three doses (from 1.5 to 20 mg/kg each) by oral gavage according to the following schedule: on day one, animals received treatment in the morning and the evening (ca. 17:00), on day two animals received the final treatment in the morning after a 4 h fast and were sacrificed 4 h thereafter. Animal work was conducted according to the national guidelines for animal care in Germany.
Upon termination, liver was collected, dipped in ice cold PBS for 30 seconds and cut into appropriate pieces. Pieces were snap frozen in liquid nitrogen and stored at −80° C. For the clinical chemistry analysis from plasma, alanine aminotransferase (ALT, IU/mL), cholesterol (CHOL, mg/dL) and triglycerides (TG, mg/dL) were determined using a fully-automated bench top analyzer (Respons®910, DiaSys Greiner GmbH, Flacht, Germany) with system kits provided by the manufacturer.

SMILES | EC50 [1] | EC50 [2] | EC50 [3] | liver exposure 4 h [4] | liver/plasma ratio 4 h [4] | plasma exposure 4 h [4]
N#Cc1sccc1-c1c(-c2cccs2)n(S(=O)(=O)c2ccc(Cl)cc2)c2cc(CCC(=O)O)c(O)cc12 [Example 17, 3-(1-((4-Chlorophenyl)sulfonyl)-3-(2-cyanothiophen-3-yl)-5-hydroxy-2-(thiophen-2-yl)-1H-indol-6-yl)propanoic Acid] | > 10000 nM | 1000 to 10000 nM | – | – | – | –
Cc1cccc(S(=O)(=O)n2c(-c3cccc(N4CC(C(=O)O)C4)c3)c(-c3ccsc3C#N)c3cc(F)ccc32)c1 [3/8] | 1000 to 10000 nM | < 100 nM | – | – | – | –
COc1ccc(S(=O)(=O)n2c(-c3ccc(CCC(N)=O)cc3)c(-c3ccsc3C#N)c3ccccc32)cc1 [Example 28, 3-(4-(3-(2-Cyanothiophen-3-yl)-1-((4-methoxyphenyl)sulfonyl)-1H-indol-2-yl)phenyl)propan-amide] | 1000 to 10000 nM | 100 to 1000 nM | – | – | – | –
N#Cc1sccc1-c1c(-c2cccs2)n(S(=O)(=O)c2ccc(Cl)cc2)c2ccc(OCC(=O)O)cc12 [Example 15, 2-((1-((4-Chlorophenyl)sulfonyl)-3-(2-cyanothiophen-3-yl)-2-(thiophen-2-yl)-1H-indol-5-yl)oxy)acetic Acid] | > 10000 nM | > 10000 nM | – | – | – | –
COc1ccc(S(=O)(=O)n2c(-c3cccs3)c(-c3ccsc3C#N)c3ccccc32)cc1 [20/14] | 100 to 1000 nM | < 100 nM | – | – | – | –
COC(=O)CCc1ccc(S(=O)(=O)n2c(-c3cccs3)c(-c3ccsc3C#N)c3ccccc32)cc1 [20/15] | 100 to 1000 nM | 100 to 1000 nM | – | – | – | –
N#Cc1sccc1-c1c(-c2cccs2)n(S(=O)(=O)c2ccc(Cl)cc2)c2ccc(O)cc12 [Example 13, 3-(1-((4-Chlorophenyl)sulfonyl)-5-hydroxy-2-(thiophen-2-yl)-1t-indol-3-yl)thiophene-2-carbonitrile] | 100 to 1000 nM | < 100 nM | – | – | – | –
Cc1ccc(S(=O)(=O)n2c(-c3cccc(C4CC4C(=O)O)c3)c(-c3ccsc3C#N)c3ccccc32)cc1 (racemic) [Example 30, rac-(1R,2R)-2-(3-(3-(2-Cyanothiophen-3-yl)-1-tosyl-1H-indol-2-yl)phenyl)cyclopropane-1-carboxylic Acid] | 100 to 1000 nM | < 100 nM | – | – | – | –
N#Cc1sccc1-c1c(-c2cncs2)n(S(=O)(=O)c2ccc(Cl)cc2)c2ccccc12 [Example 25] | 1000 to 10000 nM | < 100 nM | – | – | – | –
N#Cc1sccc1-c1c(-c2ccccc2)n(S(=O)(=O)c2ccc(OCC(=O)O)cc2)c2ccccc12 [Example 27, 2-(4-((3-(2-Cyanothiophen-3-yl)-2-phenyl-1-H-indol-1-yl)sulfonyl)phenoxy)acetic Acid] | 1000 to 10000 nM | 100 to 1000 nM | – | – | – | –
COc1ccc(S(=O)(=O)n2c(-c3ccccc3)c(-c3cc4ccccc4nc3C#N)c3ccccc32)cc1 [20/17] | – | 100 to 1000 nM | – | – | – | –
N#Cc1sccc1-c1c(-c2cccs2)n(S(=O)(=O)c2ccc(Cl)cc2)c2ccc(C(=O)O)cc12 [Example 23, 1-((4-Chlorophenyl)sulfonyl)-3-(2-cyanothiophen-3-yl)-2-(thiophen-2-yl)-1H-indole-5-carboxylic Acid] | > 10000 nM | 100 to 1000 nM | – | – | – | –
O=S(=O)(c1ccc(Cl)cc1)n1c(-c2cccs2)c(-c2ccsc2Cl)c2ccccc21 [Example 20, 1-((4-Chlorophenyl)sulfonyl)-3-(2-chlorothiophen-3-yl)-2-(thiophen-2-yl)-1H-indole] | 100 to 1000 nM | < 100 nM | – | – | – | –
N#Cc1cccc(C#N)c1-c1c(-c2cccc([C@H]3CC[C@H](C(=O)O)CC3)c2)n(S(=O)(=O)c2ccc(C(F)F)cc2)c2ccc(F)cc12 [11/62] | 100 to 1000 nM | – | < 100 nM | C (1 μM to ≤10 μM) | B (5 to ≤30) | C (C: 100 nM to <300 nM)
Cc1ccc(S(=O)(=O)n2c(-c3cccc(-c4cccc(C(=O)NS(C)(=O)=O)c4)c3)c(-c3ccsc3C#N)c3ccccc32)cc1 [Example 32, 3′-(3-(2-Cyanothiophen-3-yl)-1-tosyl-1H-indol-2-yl)-N-(methylsulfonyl)-[1,1′-biphenyl]-3-carboxamide] | 100 to 1000 nM | 100 to 1000 nM | – | – | – | –
O=C(O)c1sccc1-c1c(-c2cccs2)n(S(=O)(=O)c2ccc(Cl)cc2)c2ccccc12 [Example 21, 3-(1-((4-Chlorophenyl)sulfonyl)-2-(thiophen-2-yl)-1H-indol-3-yl)thiophene-2-carboxylic Acid] | > 10000 nM | 1000 to 10000 nM | – | – | – | –
COc1ccc(S(=O)(=O)n2c(-c3ccc(CCC(=O)O)cc3)c(-c3ccsc3C#N)c3ccccc32)cc1 [15/6] | 1000 to 10000 nM | 100 to 1000 nM | – | – | – | –
N#Cc1sccc1-c1c(-c2cccs2)n(S(=O)(=O)c2ccc(CCC(=O)O)cc2)c2ccccc12 [23/1] | 1000 to 10000 nM | < 100 nM | – | – | – | –
